Results published in patent publication US4440769A, “2-(4-Phenylalkanoylpiperazin-1-yl) quinazoline compounds, pharmaceutical compositions and method of producing α1 antagonistic activity” (Abbott Laboratories, priority 1983, dated 1984).

What was measured:
α1-adrenergic receptor [1] = experiment: radioligand binding, displacement of [3H] prazosin in rat brain cortex tissue; conditions: for Ki: [3H] prazosin, calculated from IC50; for KIα2/KIα1: ratio of KI values, α1 selectivity
α2-adrenergic receptor = biological target: T1, α2-adrenergic receptor (Rattus norvegicus, UniProt P22909); experiment: biochemical; assay type: binding; conditions: rat brain cortex, [3H] yohimbine; calculated from IC50
T1 sequence (P22909 1-465): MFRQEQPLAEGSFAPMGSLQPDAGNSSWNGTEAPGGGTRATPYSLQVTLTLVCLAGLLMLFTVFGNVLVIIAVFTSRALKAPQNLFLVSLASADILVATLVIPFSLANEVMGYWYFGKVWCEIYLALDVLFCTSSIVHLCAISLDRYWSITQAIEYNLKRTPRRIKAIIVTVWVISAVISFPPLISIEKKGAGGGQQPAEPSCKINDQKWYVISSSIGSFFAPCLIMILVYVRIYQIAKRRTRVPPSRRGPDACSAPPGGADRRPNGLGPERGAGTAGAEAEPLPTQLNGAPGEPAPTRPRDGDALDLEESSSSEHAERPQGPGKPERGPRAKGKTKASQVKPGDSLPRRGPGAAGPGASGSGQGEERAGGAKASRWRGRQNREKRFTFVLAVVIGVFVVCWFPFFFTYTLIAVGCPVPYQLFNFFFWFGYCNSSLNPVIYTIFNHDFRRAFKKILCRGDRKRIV

[2] = test system: spontaneously hypertensive rat (Okamoto rats); experiment: arterial blood pressure in the spontaneously hypertensive rat (tail cuff); assay type: in vivo; conditions: oral, 30 or 100 mg./kg.
From the text: An occluding cuff, operatively connected to a programmed sphygmomanometer, is placed over the tail of each rat of the group and retained near the tail base. […] A photocell is placed distal to the cuff to detect pulses resulting from the forward motion of blood flow with each heartbeat of the rat. As the pressure in the cuff increases, measurable pulses disappear at the point where the cuff pressure equals the arterial blood pressure. Measurable pulses reappear during deflation at approximately the same pressure, and arterial blood pressure is thereby established by cuff pressure at the point of pulse appearance. The heart rate is determined from the arterial pulse wave. Doses of 30 or 100 mg./kg. of the preferred compound of Example II are administered orally to each rat of the test groups and five interference-free signals are recorded on a Model 7 Grass polygraph for each rat at various measurement periods following administration.

α-adrenergic receptor = α-adrenergic receptor antagonistic activity in the isolated rabbit aorta (norepinephrine-induced contraction); assay type: cell-based; conditions: for pA2: norepinephrine agonist, 37±0.5° C., pH 7.4, negative log of concentration requiring doubled norepinephrine
Procedure: Female rabbits, weighing 2 to 5 kg., are sacrificed by cervical dislocation. […] The aorta is placed on cylindrical sticks and cleaned of excess fat and connective tissue, then cut into 2 tissue segments approximately 20 mm in length. Each segment of aorta is then spiraled in strips 3.5 mm wide by turning the stick as a scapel is applied, while leaving a section of 2-3 mm at each end of the aorta section intact. The spiraled tissue is mounted in an aerated (as above) tissue bath of 10 ml. of Kreb's buffer and is attached to a Grass force transducer with an initial applied tension of 2 grams. The tissue is allowed to equilibrate in the tissue bath at a temperature of 37±0.5° C. until the tension on the force transducer stabilizes at 2 grams. A cumulative dose-response curve of contraction for the tissue is determined by contacting the tissue with 10 to 400 ul of the standard agonist norepinephrine in log doses of from 1×10^-8 to 1×10^-3M. […] The degree of antagonistic activity is determined by varying the concentration of the test compound and measuring its pA2 value, i.e., the negative log of the concentration of the test compound required to inhibit the norepinephrine response to the extent that the norepinephrine concentration must be doubled to obtain the maximum standard norepinephrine contractile response of the tissue.

α1-adrenergic receptor [3] = experiment: α1-adrenergic receptor selectivity and antagonism (general statements); conditions: result in words
α1-adrenergic receptor [4] = conditions: Federation Proceedings, Vol. 41, No. 5, Abst. No. 7064; cited from earlier work

| Ki (α1-adrenergic receptor [1]) | KIα2/KIα1 (α1-adrenergic receptor [1]) | Ki (α2-adrenergic receptor) | α1-antagonism (α1-adrenergic receptor [3]) | Compound | decrease of arterial blood pressure [2] | pA2 (α-adrenergic receptor) | inhibition of increase in contractile force produced by norepinephrine (α-adrenergic receptor; result in words) | selectivity for α1-adrenergic receptor sites (α1-adrenergic receptor [3]) | α1-adrenergic receptor inhibition upon photolysis (α1-adrenergic receptor [4]) |
| --- | --- | --- | --- | --- | --- | --- | --- | --- | --- |
| 0.0045 µM | 1,094.5 | 4.93 µM | produce α1 -antagonism | COc1cc2nc(N3CCN(C(=O)CCCCc4ccc(N)cc4)CC3)nc(N)c2cc1OC.Cl.Cl [Example II, 4-amino-6,7-dimethoxy-2-[4-(5-[4-aminophenyl]pentanoyl)-1-piperazinyl] quinazoline dihydrochloride] | decrease the arterial blood pressure of rats of each group | 7.51 | inhibited | high degree of selectivity for α1 -adrenergic receptor sites | – |
| – | – | – | – | COc1cc2nc(N3CCN(C(=O)c4ccc(N=[N+]=[N-])cc4)CC3)nc(N)c2cc1OC [2-(4-[4-azido-benzoyl]-piperazin-1-yl)-4-amino-6,7-dimethoxyquinazoline] | – | – | – | – | irreversible non-competitive α1 -adrenergic receptor inhibition |
| 0.017 µM | 730.9 | 12.4 µM | – | COc1cc2nc(N3CCN(C(=O)c4ccc(N)cc4)CC3)nc(N)c2cc1OC [C, 2-(4-[4-aminobenzoyl]piperazin-1-yl)-4-amino-6,7-dimethoxyquinazoline, reference compound] | – | 7.45 | – | – | – |
| – | – | – | produce α1 -antagonism | COc1cc2nc(N3CCN(C(=O)CCCCc4ccc(N=[N+]=[N-])cc4)CC3)nc(N)c2cc1OC [4-azidophenyl analog, 4-amino-6,7-dimethoxy-2-[4-(5-[4-azidophenyl]pentanoyl)-1-piperazinyl] quinazoline] | – | – | – | high degree of selectivity for α1 -adrenergic receptor sites | – |
| – | – | – | – | COc1cc2nc(N3CCN(C(=O)c4ccco4)CC3)nc(N)c2cc1OC [prazosin, reference compound] | – | 8.58 | – | – | – |
